The assay deals with nucleus of the cell. The class given is cell-based. To be noted: peptide fused to GFP reporter.

The source of these data is patent publication US8647828B2, “Intracellular targeting of molecules via syndecan-4” (Szilak Laboratories Bioinformatics & Molecule-Design Ltd., priority 2007, dated 2014).

Where two headings read alike, the source gives them in different places.

Regarding “MYRMKKKDEGSYDL (MYRMKKKDEGSYDLGKKPIYKKAPTNEFYA; from the cytoplasmic domain of syndecan-4 Ser11 of the sequence equals position Ser179 of the full length protein) [SEQ ID NO: 1]”, the “localization of GFP reporter chimera in the cell” value (“localization” for short) was “homogenously dispersed in the cells”.
As for “SEQ ID NO: 2 (MYRMKKKDEGEYDLGKKPIYKKAPTNEFYA; from the cytoplasmic domain of syndecan-4 position Ser179 mutated into Glu)”, the “localization” value is given as “accumulation of the reporter was detected in the nuclei”. Also, the “localization” value (listed as GFP-Ser179Glu mutant chimera) is listed as “nuclear accumulation”.
